The assay deals with SMYD2 (Homo sapiens (Human), UniProt Q9NRG4). The assay can be described thus: SMYD2 biochemical assay (SMYD2 enzyme assay on peptide substrate, 3H-SAM Flashplate). Particulars: read-out: SMYD2 Biochem IC50; IC50 values are an average of n = 1 to n = 50.

pIC50: −log10 of the molar value.

Chain of SMYD2 (Q9NRG4 whole entry): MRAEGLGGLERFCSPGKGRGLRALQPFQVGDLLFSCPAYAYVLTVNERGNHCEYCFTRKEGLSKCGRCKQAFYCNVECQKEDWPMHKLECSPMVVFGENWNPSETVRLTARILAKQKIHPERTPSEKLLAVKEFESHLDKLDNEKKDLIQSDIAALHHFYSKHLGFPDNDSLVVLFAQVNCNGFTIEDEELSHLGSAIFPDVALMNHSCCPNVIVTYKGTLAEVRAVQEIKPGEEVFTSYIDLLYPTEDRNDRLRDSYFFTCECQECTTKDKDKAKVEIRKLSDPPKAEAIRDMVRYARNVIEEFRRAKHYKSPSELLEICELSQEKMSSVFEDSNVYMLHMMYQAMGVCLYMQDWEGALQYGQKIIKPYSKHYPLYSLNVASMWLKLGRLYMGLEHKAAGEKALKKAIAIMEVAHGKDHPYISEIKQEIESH

For `CC(c1ccc2c(cnn2C)c1)N1CC(NC(=O)c2cn(C3CC3)nn2)C1` (centres unmarked) [compound 952, 1-cyclopropyl-N-(1-(1-(1-methyl-1H-indazol-5-yl)ethyl)azetidin-3-yl)-1H-1,2,3-triazole-4-carboxamide], the pIC50 is 5.79.
As for `O=C(NC1CN(Cc2ccc(Cn3cccn3)cc2)C1)c1cn(C2CC2)nn1` [compound 953, N-(1-(4-((1H-pyrazol-1-yl)methyl)benzyl)azetidin-3-yl)-1-cyclopropyl-1H-1,2,3-triazole-4-carboxamide], the figure is 5.25.
As to `O=C(NC1CN(Cc2ccc(Cn3cccn3)cc2)C1)c1cc(C2CC2)cnn1` [compound 954, N-(1-(4-((1H-pyrazol-1-yl)methyl)benzyl)azetidin-3-yl)-5-cyclopropylpyridazine-3-carboxamide], the pIC50 is 5.62.
In the case of `O=C(NC1CN(Cc2cnn(Cc3ccccc3)c2)C1)c1cc(C2CC2)on1` [compound 955, N-(1-((1-benzyl-1H-pyrazol-4-yl)methyl)azetidin-3-yl)-5-cyclopropylisoxazole-3-carboxamide] it was 7.14.
In the case of `CC(c1cccc(OCC(C)(C)O)c1Cl)N1CC(NC(=O)c2cn(C3CC3)nn2)C1` (centres unmarked) [compound 956, N-(1-(1-(2-chloro-3-(2-hydroxy-2-methylpropoxy)phenyl)ethyl)azetidin-3-yl)-1-cyclopropyl-1H-1,2,3-triazole-4-carboxamide] it was 5.59.
As for `COc1ccc(COc2ccc(C(C)N3CC(NC(=O)c4cn(C5CC5)nn4)C3)cc2)cc1` (centres unmarked) [compound 957, 1-cyclopropyl-N-(1-(1-(4-((4-methoxybenzyl)oxy)phenyl)ethyl)azetidin-3-yl)-1H-1,2,3-triazole-4-carboxamide], the figure is 6.80; as for `COc1ccc(C(C)N2CC(NC(=O)c3cc(C4CC4)cnn3)C2)cc1` (centres unmarked) [compound 958, 5-cyclopropyl-N-(1-(1-(4-methoxyphenyl)ethyl)azetidin-3-yl)pyridazine-3-carboxamide], 6.22.
Take `CC(c1ccc(OCCN(C)C)cc1)N1CC(NC(=O)c2cn(C3CC3)nn2)C1` (centres unmarked) [compound 959, 1-cyclopropyl-N-(1-(1-(4-(2-(dimethylamino)ethoxy)phenyl)ethyl)azetidin-3-yl)-1H-1,2,3-triazole-4-carboxamide]: the pIC50 is 5.70.
As for `CC(c1ccc(OCCc2ccccc2)cc1)N1CC(NC(=O)c2cn(C3CC3)nn2)C1` (centres unmarked) [compound 960, 1-cyclopropyl-N-(1-(1-(4-phenethoxyphenyl)ethyl)azetidin-3-yl)-1H-1,2,3-triazole-4-carboxamide], the figure is 6.11.
On to `CC(C)N1CC(NC(=O)c2cc(C3CC3)ccn2)C1` [compound 961, 4-cyclopropyl-N-(1-isopropylazetidin-3-yl)picolinamide], for which the pIC50 was 5.89.
For the compound `CC(c1cc(Cl)ccc1Cl)N1CC(NC(=O)c2cc(C3CC3)ccn2)C1` (centres unmarked) [compound 962, 4-cyclopropyl-N-(1-(1-(2,5-dichlorophenyl)ethyl)azetidin-3-yl)picolinamide], the pIC50 was 6.32.
In the case of `CNC(=O)c1ccc(COc2ccc(C(C)N3CC(NC(=O)c4cn(C5CC5)nn4)C3)cc2)cc1` (centres unmarked) [compound 963, 1-cyclopropyl-N-(1-(1-(4-((4-(methylcarbamoyl)benzyl)oxy)phenyl)ethyl)azetidin-3-yl)-1H-1,2,3-triazole-4-carboxamide] it was 6.01; in that of `CC(c1cccc(OCCO)c1Cl)N1CC(NC(=O)c2cc(C3CC3)ccn2)C1` (centres unmarked) [compound 964, N-(1-(1-(2-chloro-3-(2-hydroxyemoxy)phenyl)ethyl)azetidin-3-yl)-4-cyclopropylpicolinamide], 4.98; in that of `COc1cccc(C(C)N2CC(NC(=O)c3cc(C4CC4)cnn3)C2)c1Cl` (centres unmarked) [compound 965, N-(1-(1-(2-chloro-3-memoxyphenyl)ethyl)azetidin-3-yl)-5-cyclopropylpyridazine-3-carboxamide], 7.14.
As for `O=C(NC1CN(Cc2cnn(Cc3ccccc3)c2)C1)c1cc(C2CC2)ccn1` [compound 966, N-(1-((1-benzyl-1H-pyrazol-4-yl)methyl)azetidin-3-yl)-4-cyclopropylpicolinamide], the figure is 7.89.
As for `O=C(NC1CN(Cc2ccc(OCc3ccccc3)cc2)C1)c1cc(C2CC2)ccn1` [compound 967, N-(1-(4-(benzyloxy)benzyl)azetidin-3-yl)-4-cyclopropylpicolinamide], the figure is 6.82.
Turning to `CC(c1ccc(OCC(F)(F)F)cc1)N1CC(NC(=O)c2cn(C3CC3)nn2)C1` (centres unmarked) [compound 968, 1-cyclopropyl-N-(1-(1-(4-(2,2,2-trifluoroethoxy)phenyl)ethyl)azetidin-3-yl)-1H-1,2,3-triazole-4-carboxamide], the pIC50 is 5.77.
In the case of `CC(c1cc(Cl)ccc1OC(F)F)N1CC(NC(=O)c2cn(C3CC3)nn2)C1` (centres unmarked) [compound 970, N-(1-(1-(5-chloro-2-(difluoromethoxy)phenyl)ethyl)azetidin-3-yl)-1-cyclopropyl-1H-1,2,3-triazole-4-carboxamide], the pIC50 is 5.29.
With `Cc1ccc(COc2ccc(C(C)N3CC(NC(=O)c4cn(C5CC5)nn4)C3)cc2)cc1` (centres unmarked) [compound 971, 1-cyclopropyl-N-(1-(1-(4-((4-methylbenzyl)oxy)phenyl)ethyl)azetidin-3-yl)-1H-1,2,3-triazole-4-carboxamide], the pIC50 is 7.06.
As for `O=C(NC1CN(Cc2ccc(OCc3cccnc3)cc2)C1)c1cn(C2CC2)nn1` [compound 972, 1-cyclopropyl-N-(1-(4-(pyridin-3-ylmemoxy)benzyl)azetidin-3-yl)-1H-1,2,3-triazole-4-carboxamide], the figure is 5.89; as for `CC(c1cccc(OCC(O)CO)c1Cl)N1CC(NC(=O)c2cn(C3CC3)nn2)C1` (centres unmarked) [compound 973, N-(1-(1-(2-chloro-3-(2,3-dihydroxypropoxy)phenyl)ethyl)azetidin-3-yl)-1-cyclopropyl-1H-1,2,3-triazole-4-carboxamide], below 4.30; as for `CC(c1ccc(COc2ccccc2)cc1)N1CC(NC(=O)c2cn(C3CC3)nn2)C1` (centres unmarked) [compound 974, 1-cyclopropyl-N-(1-(1-(4-(phenoxymethyl)phenyl)ethyl)azetidin-3-yl)-1H-1,2,3-triazole-4-carboxamide], 6.06.
In the case of `CNCCOc1cccc(C(C)N2CC(NC(=O)c3cn(C4CC4)nn3)C2)c1Cl` (centres unmarked) [compound 975, N-(1-(1-(2-chloro-3-(2-(methylamino)ethoxy)phenyl)ethyl)azetidin-3-yl)-1-cyclopropyl-1H-1,2,3-triazole-4-carboxamide] it was 5.27; in that of `CC(c1cc(Cl)ccc1C(F)(F)F)N1CC(NC(=O)c2cn(C3CC3)nn2)C1` (centres unmarked) [compound 976, N-(1-(1-(5-chloro-2-(trifluoromethyl)phenyl)ethyl)azetidin-3-yl)-1-cyclopropyl-1H-1,2,3-triazole-4-carboxamide], 5.74.
In the case of `CC(c1cccc(OCCN(C)C)c1Cl)N1CC(NC(=O)c2cn(C3CC3)nn2)C1` (centres unmarked) [compound 977, N-(1-(1-(2-chloro-3-(2-(dimethylamino)ethoxy)phenyl)ethyl)azetidin-3-yl)-1-cyclopropyl-1H-1,2,3-triazole-4-carboxamide] it was 5.12; in that of `CC(O)COc1cccc(C(C)N2CC(NC(=O)c3cn(C4CC4)nn3)C2)c1Cl` (centres unmarked) [compound 978, N-(1-(1-(2-chloro-3-(2-hydroxypropoxy)phenyl)ethyl)azetidin-3-yl)-1-cyclopropyl-1H-1,2,3-triazole-4-carboxamide], 5.96.
For `CC(NC(=O)c1cn(C2CC2)nn1)C1CCCCN1C` (centres unmarked) [compound 979, 1-cyclopropyl-N-(1-(1-methylpiperidin-2-yl)ethyl)-1H-1,2,3-triazole-4-carboxamide], the pIC50 was below 4.30.
In the case of `CC(C)(c1ccc(OCc2ccccc2)cc1)N1CC(NC(=O)c2cn(C3CC3)nn2)C1` [compound 980, N-(1-(2-(4-(benzyloxy)phenyl)propan-2-yl)azetidin-3-yl)-1-cyclopropyl-1H-1,2,3-triazole-4-carboxamide] it was 6.00; in that of `CC(NC(=O)c1cc(C2CC2)cnn1)C1CCCCN1C` (centres unmarked) [compound 981, 5-cyclopropyl-N-(1-(1-methylpiperidin-2-yl)ethyl)pyridazine-3-carboxamide], below 4.30.
In the case of `COc1cccc(Cn2cc(CN3CC(NC(=O)c4cn(C5CC5)nn4)C3)cn2)c1` [compound 982, 1-cyclopropyl-N-(1-((1-(3-methoxybenzyl)-1H-pyrazol-4-yl)methyl)azetidin-3-yl)-1H-1,2,3-triazole-4-carboxamide] it was 6.77; in that of `O=C(NC1CN(Cc2ccc(C(O)Cc3ccccc3)cc2)C1)c1cn(C2CC2)nn1` (centres unmarked) [compound 983, 1-cyclopropyl-N-(1-(4-(1-hydroxy-2-phenylethyl)benzyl)azetidin-3-yl)-1H-1,2,3-triazole-4-carboxamide], 5.86.
In the case of `O=C(NC1CN(Cc2cnn(Cc3ccc(Cl)cc3)c2)C1)c1cn(C2CC2)nn1` [compound 985, N-(1-((1-(4-Chlorobenzyl)-1H-pyrazol-4-yl)methyl)azetidin-3-yl)-1-cyclopropyl-1H-1,2,3-triazole-4-carboxamide], the pIC50 was 8.41.
In the case of `O=C(NC1CN(Cc2cnn(Cc3ccccc3)c2)C1)c1ncc(C2CC2)[nH]1` [compound 986, N-(1-((1-benzyl-1H-pyrazol-4-yl)methyl)azetidin-3-yl)-5-cyclopropyl-1H-imidazole-2-carboxamide] it was below 4.30; in that of `O=C(NC1CN(Cc2cnn(Cc3cccc(Cl)c3)c2)C1)c1cn(C2CC2)nn1` [compound 987, N-(1-((1-(3-chlorobenzyl)-1H-pyrazol-4-yl)methyl)azetidin-3-yl)-1-cyclopropyl-1H-1,2,3-triazole-4-carboxamide], 7.62.
As for `O=C(NC1CN(Cc2ccc(OCc3nncs3)cc2)C1)c1cn(C2CC2)nn1` [compound 988, N-(1-(4-((1,3,4-thiadiazol-2-yl)methoxy)benzyl)azetidin-3-yl)-1-cyclopropyl-1H-1,2,3-triazole-4-carboxamide], the figure is 5.72.

The values are drawn from patent US10266526B2, “Substituted 1,2,3-triazoles as SMYD inhibitors for treating cancer” (EPIZYME, INC., priority 2014, dated 2019).
